According to patent publication US11464753B2, “Composition for treatment of neurodegenerative disease” (WINNING THE FIGHT INC., priority 2013, dated 2022):
“Also recorded” adds a separate entry of the source.

Tests used:
[1] = system: ALS patients; assay: Administration of AKG-containing compositions to human ALS patients, observation of symptoms
Protocol: In one example, 250 mg of GABA was administered three times per day per os, 30 mg of NADH was administered twice per day sublingually, and 3 grams of AAKG were administered, initially, four times per day per os, with the dosage gradually increasing up to 18 grams, if tolerated by the patient.

[2] = system: patients suffering from neurodegenerative diseases; assay: Oral AKG in patients suffering from neurodegenerative diseases; format: in vivo, human
From the text: Initial results in mutant SOD1 mice show similar benefits compared to controls, when administered one example of the composition. […] In some instances, progression of the diseases were delayed or even reversed in human patients.
In Example A of Table A a sustained release formulation of […] is preferred.
For example, an […] ([…] or […]) is included in a composition to be used by patients with a neurodegenerative disease at a baseline dosage.
Results for people with various neurodegenerative diseases have shown that a core composition taken three times daily can provide a combination of supplements that are needed by the patients.

Structure (SMILES) | muscle tone and muscle spasticity ([1]; GABA administered as a supplement, patients with neurodegenerative diseases such as ALS) | improvement at sub-optimal dosage ([2]; AKG dosage of only six to eight grams) | symptoms when AKG was withheld ([2]; AKG withheld from a patient, then recommenced) | symptoms of neurodegenerative disease ([2]; human patients (ALS, Alzheimers, Muscular Distrophy) taking AKG) | improvement with hourly AKG ([1]; human patient, AKG supplement hourly during waking hours compared to four times per day) | symptoms of ALS after withdrawal of AKG ([1]; withdrawal for a short period (a few days))
NCCCC(=O)O [GABA, gamma aminobutyric acid] | restore muscle tone; also recorded: diminished muscle spasticity | – | – | – | – | –
O=C(O)CCC(=O)C(=O)O [AKG, alpha-ketoglutaric acid] | – | some improvement | symptoms returned | fewer symptoms of the diseases; also recorded: marked, obvious improvements | marked improvement | return of symptoms of ALS
